In data set [1] the target is von Hippel-Lindau disease tumor suppressor/Bromodomain-containing protein 4 (Homo sapiens) (UniProt O60885+P40337). In words: Protac activity at BRD4/VHL E3 ligase in human MDA-MB-231 cells assessed as decrease in BRD4 expression at 1 uM incubated for 4 to 24 hrs by Western blot analysis. It is filed as cell-based. The settings on record: time lower 4.0 hrs, time upper […].

Data set [2] is described as follows: Thermodynamic solubility of compound in HCL at pH 2 incubated for 2 hrs with shaking by LC-UV analysis. It is filed as physicochemical. Conditions: read-out: Therm_solubility.
Data set [3] can be described thus: Thermodynamic solubility of compound in phosphate buffer at pH 7.4 incubated for 2 hrs with shaking by LC-UV analysis. The format is physicochemical. The settings on record: read-out: Therm_solubility.

Converted amounts (≈) assume the structure as drawn. The source made the active and inactive calls. No cut-off for these calls is given here. Where a SMILES comes first, the peptide text is derived from it. [ ]: non-standard residue; d: D form. The star is where a group is joined. JQ1acid = Cc1sc2c(c1C)C(c1ccc(Cl)cc1)=N[C@@H](CC(=O)*)c1nnc(C)n1-2; NHBn(4-(4-Me-thiazol-5-yl)) = Cc1ncsc1-c1ccc(CN*)cc1; Hyp = O=C(O)[C@@H]1C[C@@H](O)CN1; Tle = CC(C)(C)[C@H](N)C(=O)O; Sar = CNCC(=O)O

von Hippel-Lindau disease tumor suppressor/Bromodomain-containing protein 4 (Homo sapiens), sequence (P40337 whole entry, looked up, other chains not shown): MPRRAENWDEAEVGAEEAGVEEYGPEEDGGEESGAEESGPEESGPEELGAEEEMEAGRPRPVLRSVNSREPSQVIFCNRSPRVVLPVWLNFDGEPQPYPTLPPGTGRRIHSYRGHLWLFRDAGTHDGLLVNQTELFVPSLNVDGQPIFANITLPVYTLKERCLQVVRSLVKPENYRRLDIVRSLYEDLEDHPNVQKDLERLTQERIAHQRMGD

Turning to `Cc1ncsc1-c1ccc(CNC(=O)[C@@H]2C[C@@H](O)CN2C(=O)[C@@H](NC(=O)CNC(=O)CN2CCN(C(=O)C[C@@H]3N=C(c4ccc(Cl)cc4)c4c(sc(C)c4C)-n4c(C)nnc43)CC2)C(C)(C)C)cc1`, the result in data set [1] was inactive.

Consider `Cc1ncsc1-c1ccc(CNC(=O)[C@@H]2C[C@@H](O)CN2C(=O)[C@@H](NC(=O)CCCNC(=O)CN2CCN(C(=O)C[C@@H]3N=C(c4ccc(Cl)cc4)c4c(sc(C)c4C)-n4c(C)nnc43)CC2)C(C)(C)C)cc1`, for which, in data set [1], the result was inactive.

`Cc1sc2c(c1C)C(c1ccc(Cl)cc1)=N[C@@H](CC(=O)NCCCCNC(=O)COc1cccc3c1C(=O)N(C1CCC(=O)NC1=O)C3=O)c1nnc(C)n1-2` (stereo not given in full): the solubility thermodynamic at 2 h in data set [2] worked out at 171 µM (≈ 134 µg/mL); in data set [3] it was 60 µM (≈ 47.1 µg/mL).

`Cc1ncsc1-c1ccc(CNC(=O)[C@@H]2C[C@@H](O)CN2C(=O)[C@@H](NC(=O)CNC(=O)CN(C)C(=O)C[C@@H]2N=C(c3ccc(Cl)cc3)c3c(sc(C)c3C)-n3c(C)nnc32)C(C)(C)C)cc1` (JQ1acid-[Sar]G[Tle][Hyp]-{NHBn(4-(4-Me-thiazol-5-yl))}): the result in data set [1] was inactive.
